Measured values as given in ChEMBL document CHEMBL1146654, “3-(7-Azaindolyl)-4-arylmaleimides as potent, selective inhibitors of glycogen synthase kinase-3” (Bioorg Med Chem Lett, 2004).

Key:
[1] = target: Ca2+/calmodulin-dependent protein kinase II (CaM kinase II) (Rattus norvegicus) (UniProt P11275+P08413+P15791+P11730); experiment: Inhibition of Calcium/calmodulin-dependent protein kinase type II; type: protein assay; design: scale not given: the % may be the effect or the level left
[2] = target: T1, Calcium/calmodulin-dependent protein kinase type IV (Homo sapiens) (UniProt Q16566); experiment: Inhibition of Calcium/calmodulin-dependent protein kinase type IV; design: scale not given: the % may be the effect or the level left
T1 sequence (whole entry): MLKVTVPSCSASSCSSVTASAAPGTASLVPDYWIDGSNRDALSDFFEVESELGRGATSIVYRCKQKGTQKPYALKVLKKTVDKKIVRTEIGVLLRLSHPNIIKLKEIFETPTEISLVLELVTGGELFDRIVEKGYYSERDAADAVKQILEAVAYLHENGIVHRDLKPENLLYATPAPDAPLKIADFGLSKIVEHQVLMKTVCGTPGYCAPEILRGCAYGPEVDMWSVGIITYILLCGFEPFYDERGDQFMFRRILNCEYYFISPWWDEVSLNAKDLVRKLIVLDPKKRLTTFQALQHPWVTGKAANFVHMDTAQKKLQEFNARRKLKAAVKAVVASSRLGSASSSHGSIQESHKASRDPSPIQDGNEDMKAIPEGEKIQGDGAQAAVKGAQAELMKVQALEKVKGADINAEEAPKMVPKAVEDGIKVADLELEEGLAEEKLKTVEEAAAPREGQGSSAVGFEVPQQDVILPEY

[3] = target: Casein kinase II (Homo sapiens) (UniProt P67870+P68400+P19784); experiment: Inhibition of Casein kinase 2; type: protein-complex assay; design: scale not given: the % may be the effect or the level left
[4] = target: Cyclin-dependent kinase 5/CDK5 activator 1 (Homo sapiens) (UniProt Q00535+Q15078); experiment: Inhibition of Cyclin-dependent kinase 5-p35nck5a; type: protein-complex assay; design: scale not given: the % may be the effect or the level left
Sequence of Cyclin-dependent kinase 5/CDK5 activator 1 (Homo sapiens) (Q00535 whole entry): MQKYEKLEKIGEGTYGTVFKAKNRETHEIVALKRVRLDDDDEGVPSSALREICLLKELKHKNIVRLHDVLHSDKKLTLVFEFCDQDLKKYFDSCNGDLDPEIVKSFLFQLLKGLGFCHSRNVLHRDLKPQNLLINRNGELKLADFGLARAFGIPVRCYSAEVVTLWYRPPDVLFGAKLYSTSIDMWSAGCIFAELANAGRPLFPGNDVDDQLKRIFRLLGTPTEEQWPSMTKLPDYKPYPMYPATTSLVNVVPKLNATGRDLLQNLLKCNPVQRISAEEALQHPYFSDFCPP
Sequence of Cyclin-dependent kinase 5/CDK5 activator 1 (Homo sapiens) (Q15078 99-307 partner limits assumed): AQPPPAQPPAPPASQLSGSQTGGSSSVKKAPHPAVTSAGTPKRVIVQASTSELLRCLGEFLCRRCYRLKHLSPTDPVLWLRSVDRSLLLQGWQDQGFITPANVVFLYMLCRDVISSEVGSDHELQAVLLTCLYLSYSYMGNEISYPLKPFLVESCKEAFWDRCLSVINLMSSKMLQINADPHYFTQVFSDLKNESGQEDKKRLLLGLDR

[5] = target: Cyclin-dependent kinase 1/cyclin B (Homo sapiens, UniProt P06493); experiment: Inhibition of Cyclin-dependent kinase 1-cyclin B; type: protein-complex assay
[6] = target: T2, Dual specificity mitogen-activated protein kinase kinase 7 (Homo sapiens) (UniProt O14733); experiment: Inhibition of Mitogen activated protein kinase kinase 7 beta; design: scale not given: the % may be the effect or the level left
T2 sequence (whole entry): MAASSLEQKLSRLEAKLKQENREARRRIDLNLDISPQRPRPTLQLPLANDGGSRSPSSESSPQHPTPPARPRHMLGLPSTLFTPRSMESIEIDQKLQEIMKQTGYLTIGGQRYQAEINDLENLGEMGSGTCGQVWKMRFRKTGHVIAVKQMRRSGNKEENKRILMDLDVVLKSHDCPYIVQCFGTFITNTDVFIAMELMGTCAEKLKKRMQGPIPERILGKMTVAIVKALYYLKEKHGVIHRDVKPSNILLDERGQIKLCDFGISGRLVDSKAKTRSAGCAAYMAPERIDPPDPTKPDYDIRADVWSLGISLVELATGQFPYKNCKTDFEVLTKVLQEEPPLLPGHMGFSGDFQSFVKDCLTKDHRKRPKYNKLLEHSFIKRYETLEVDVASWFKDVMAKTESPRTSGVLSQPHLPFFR

[7] = target: Mitogen-activated protein kinase 3 (Homo sapiens) (UniProt P27361); experiment: Inhibition of compound against mitogen-activated protein kinase 1; design: scale not given: the % may be the effect or the level left
Sequence of Mitogen-activated protein kinase 3 (Homo sapiens) (P27361 whole entry): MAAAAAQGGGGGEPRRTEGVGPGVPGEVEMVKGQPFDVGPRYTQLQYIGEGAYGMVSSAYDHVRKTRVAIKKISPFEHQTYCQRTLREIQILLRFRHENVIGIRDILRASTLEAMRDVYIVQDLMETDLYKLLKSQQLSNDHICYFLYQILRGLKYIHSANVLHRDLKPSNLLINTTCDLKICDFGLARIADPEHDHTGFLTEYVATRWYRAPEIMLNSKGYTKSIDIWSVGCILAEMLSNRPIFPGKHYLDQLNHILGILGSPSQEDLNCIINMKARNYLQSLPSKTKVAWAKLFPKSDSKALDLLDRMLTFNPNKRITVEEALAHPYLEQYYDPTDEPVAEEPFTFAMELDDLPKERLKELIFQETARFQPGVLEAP

Bos taurus = species: Bos taurus; experiment: Inhibition of bovine PKA; design: scale not given: the % may be the effect or the level left
[8] = target: Platelet-derived growth factor receptor alpha (Homo sapiens) (UniProt P16234); experiment: Inhibition of PDGFRalpha; design: scale not given: the % may be the effect or the level left
Sequence of Platelet-derived growth factor receptor alpha (Homo sapiens) (P16234 whole entry): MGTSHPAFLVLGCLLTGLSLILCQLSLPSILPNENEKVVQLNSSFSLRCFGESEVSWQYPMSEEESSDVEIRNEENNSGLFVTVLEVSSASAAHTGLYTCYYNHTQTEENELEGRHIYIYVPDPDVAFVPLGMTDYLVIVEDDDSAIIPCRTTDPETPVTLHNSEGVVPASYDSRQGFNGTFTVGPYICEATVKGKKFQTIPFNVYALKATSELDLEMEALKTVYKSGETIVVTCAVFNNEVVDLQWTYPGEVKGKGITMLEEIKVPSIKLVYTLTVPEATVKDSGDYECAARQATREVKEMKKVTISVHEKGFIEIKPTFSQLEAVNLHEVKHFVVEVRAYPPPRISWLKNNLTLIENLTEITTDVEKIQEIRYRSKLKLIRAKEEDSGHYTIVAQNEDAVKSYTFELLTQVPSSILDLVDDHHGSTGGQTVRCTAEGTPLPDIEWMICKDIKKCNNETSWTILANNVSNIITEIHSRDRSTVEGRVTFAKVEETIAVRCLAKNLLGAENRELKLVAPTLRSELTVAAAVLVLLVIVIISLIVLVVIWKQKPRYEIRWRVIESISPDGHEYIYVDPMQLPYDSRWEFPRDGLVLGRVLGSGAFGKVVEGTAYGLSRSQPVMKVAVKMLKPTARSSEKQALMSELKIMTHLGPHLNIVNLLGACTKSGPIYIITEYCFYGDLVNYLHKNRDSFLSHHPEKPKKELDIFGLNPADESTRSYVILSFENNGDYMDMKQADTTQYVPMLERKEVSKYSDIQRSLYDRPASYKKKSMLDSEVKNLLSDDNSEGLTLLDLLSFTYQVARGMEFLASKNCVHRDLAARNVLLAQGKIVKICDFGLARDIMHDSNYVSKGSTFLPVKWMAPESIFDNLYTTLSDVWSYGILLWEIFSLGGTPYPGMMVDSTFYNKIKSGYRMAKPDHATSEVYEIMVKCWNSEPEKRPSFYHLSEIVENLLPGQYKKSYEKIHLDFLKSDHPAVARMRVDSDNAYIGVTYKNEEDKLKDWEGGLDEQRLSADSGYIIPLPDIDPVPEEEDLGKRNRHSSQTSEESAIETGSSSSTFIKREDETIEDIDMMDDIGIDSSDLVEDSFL

[9] = target: T3, 3-phosphoinositide-dependent protein kinase 1 (Homo sapiens) (UniProt O15530); experiment: Inhibition of PDK1; design: scale not given: the % may be the effect or the level left
T3 sequence (whole entry): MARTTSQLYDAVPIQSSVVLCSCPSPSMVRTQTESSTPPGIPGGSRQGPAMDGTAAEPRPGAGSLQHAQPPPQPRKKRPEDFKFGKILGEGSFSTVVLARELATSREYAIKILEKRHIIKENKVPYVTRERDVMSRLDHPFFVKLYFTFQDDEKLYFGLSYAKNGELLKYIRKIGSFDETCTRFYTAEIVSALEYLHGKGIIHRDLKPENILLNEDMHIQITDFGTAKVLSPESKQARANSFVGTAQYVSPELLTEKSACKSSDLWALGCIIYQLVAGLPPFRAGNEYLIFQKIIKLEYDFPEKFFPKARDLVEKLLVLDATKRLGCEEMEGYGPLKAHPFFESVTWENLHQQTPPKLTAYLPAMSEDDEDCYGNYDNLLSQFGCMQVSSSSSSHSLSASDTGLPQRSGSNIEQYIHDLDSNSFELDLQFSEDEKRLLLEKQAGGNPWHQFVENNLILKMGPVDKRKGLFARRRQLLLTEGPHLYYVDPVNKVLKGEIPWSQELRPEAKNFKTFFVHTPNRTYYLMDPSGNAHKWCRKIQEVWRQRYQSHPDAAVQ

[10] = target: Serine/threonine-protein kinase PAK 2 (Homo sapiens) (UniProt Q13177); experiment: Inhibition of PAK2; design: scale not given: the % may be the effect or the level left
Sequence of Serine/threonine-protein kinase PAK 2 (Homo sapiens) (Q13177 whole entry): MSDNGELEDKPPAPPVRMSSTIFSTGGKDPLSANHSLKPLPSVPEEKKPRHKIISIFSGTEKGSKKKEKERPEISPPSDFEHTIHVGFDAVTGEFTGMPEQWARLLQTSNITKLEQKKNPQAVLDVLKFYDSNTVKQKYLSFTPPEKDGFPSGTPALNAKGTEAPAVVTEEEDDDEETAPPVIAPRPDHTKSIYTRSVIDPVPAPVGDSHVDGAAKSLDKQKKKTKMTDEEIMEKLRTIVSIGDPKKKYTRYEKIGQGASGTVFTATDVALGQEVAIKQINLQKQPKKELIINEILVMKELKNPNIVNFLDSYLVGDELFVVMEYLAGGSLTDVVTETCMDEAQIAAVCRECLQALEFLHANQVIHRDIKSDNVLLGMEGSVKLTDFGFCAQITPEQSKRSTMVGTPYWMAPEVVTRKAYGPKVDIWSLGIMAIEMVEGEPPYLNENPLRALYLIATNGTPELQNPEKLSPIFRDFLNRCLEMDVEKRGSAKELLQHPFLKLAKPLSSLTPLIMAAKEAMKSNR

[11] = target: RAF proto-oncogene serine/threonine-protein kinase (Homo sapiens) (UniProt P04049); experiment: Inhibition of RAF proto-oncogene serine/threonine-protein kinase; design: scale not given: the % may be the effect or the level left
Sequence of RAF proto-oncogene serine/threonine-protein kinase (Homo sapiens) (P04049 whole entry): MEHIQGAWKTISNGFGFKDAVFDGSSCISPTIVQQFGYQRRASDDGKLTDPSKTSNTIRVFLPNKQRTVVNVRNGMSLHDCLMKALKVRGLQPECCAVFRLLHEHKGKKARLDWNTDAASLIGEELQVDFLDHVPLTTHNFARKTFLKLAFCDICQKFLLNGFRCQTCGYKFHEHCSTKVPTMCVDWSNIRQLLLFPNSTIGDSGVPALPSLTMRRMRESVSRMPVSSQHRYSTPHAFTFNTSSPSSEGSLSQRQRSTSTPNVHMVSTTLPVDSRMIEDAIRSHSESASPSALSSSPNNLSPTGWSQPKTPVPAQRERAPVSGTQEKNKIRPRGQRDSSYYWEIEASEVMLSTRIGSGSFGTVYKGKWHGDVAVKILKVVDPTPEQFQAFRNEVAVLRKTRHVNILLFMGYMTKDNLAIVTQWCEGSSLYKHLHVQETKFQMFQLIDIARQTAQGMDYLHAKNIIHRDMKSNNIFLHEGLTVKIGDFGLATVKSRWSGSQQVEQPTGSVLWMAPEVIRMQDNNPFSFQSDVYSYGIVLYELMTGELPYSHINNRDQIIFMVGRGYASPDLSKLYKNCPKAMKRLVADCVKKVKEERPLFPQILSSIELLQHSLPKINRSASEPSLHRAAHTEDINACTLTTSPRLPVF

[12] = target: Serine/threonine-protein kinase Chk2 (Homo sapiens) (UniProt O96017); experiment: Inhibition of Serine/threonine-protein kinase Chk2; design: scale not given: the % may be the effect or the level left
Sequence of Serine/threonine-protein kinase Chk2 (Homo sapiens) (O96017 whole entry): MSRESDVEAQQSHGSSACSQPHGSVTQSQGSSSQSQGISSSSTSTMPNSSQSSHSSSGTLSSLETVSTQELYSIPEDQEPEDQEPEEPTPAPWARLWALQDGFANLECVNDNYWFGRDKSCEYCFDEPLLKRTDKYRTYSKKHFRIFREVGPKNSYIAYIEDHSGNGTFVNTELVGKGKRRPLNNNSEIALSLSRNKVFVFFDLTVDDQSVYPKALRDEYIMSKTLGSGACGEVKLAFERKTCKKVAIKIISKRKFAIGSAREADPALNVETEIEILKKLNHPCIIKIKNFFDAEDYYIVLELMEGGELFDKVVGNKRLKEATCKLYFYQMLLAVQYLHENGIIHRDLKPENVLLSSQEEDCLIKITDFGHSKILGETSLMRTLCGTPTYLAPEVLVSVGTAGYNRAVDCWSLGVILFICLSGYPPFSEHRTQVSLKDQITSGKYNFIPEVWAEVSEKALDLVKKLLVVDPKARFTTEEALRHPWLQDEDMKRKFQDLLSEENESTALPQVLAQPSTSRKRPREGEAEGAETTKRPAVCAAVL

[13] = target: Mitogen-activated protein kinase 11 (Homo sapiens) (UniProt Q15759); experiment: Inhibition of Stress activated protein kinase 2b; design: scale not given: the % may be the effect or the level left
Sequence of Mitogen-activated protein kinase 11 (Homo sapiens) (Q15759 whole entry): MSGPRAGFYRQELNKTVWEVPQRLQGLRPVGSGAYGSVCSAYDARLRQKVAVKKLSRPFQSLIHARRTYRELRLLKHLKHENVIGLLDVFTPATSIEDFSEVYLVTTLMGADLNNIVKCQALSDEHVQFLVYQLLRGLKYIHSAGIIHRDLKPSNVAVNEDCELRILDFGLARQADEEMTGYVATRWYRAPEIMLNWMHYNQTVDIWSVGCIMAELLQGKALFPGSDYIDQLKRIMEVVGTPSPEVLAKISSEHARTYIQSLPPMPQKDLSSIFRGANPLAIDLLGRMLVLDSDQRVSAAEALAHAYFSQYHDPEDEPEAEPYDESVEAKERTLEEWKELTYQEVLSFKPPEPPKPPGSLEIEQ

[14] = target: T4, Mitogen-activated protein kinase 12 (Homo sapiens) (UniProt P53778); experiment: Inhibition of Stress activated protein kinase 3; design: scale not given: the % may be the effect or the level left
T4 sequence (whole entry): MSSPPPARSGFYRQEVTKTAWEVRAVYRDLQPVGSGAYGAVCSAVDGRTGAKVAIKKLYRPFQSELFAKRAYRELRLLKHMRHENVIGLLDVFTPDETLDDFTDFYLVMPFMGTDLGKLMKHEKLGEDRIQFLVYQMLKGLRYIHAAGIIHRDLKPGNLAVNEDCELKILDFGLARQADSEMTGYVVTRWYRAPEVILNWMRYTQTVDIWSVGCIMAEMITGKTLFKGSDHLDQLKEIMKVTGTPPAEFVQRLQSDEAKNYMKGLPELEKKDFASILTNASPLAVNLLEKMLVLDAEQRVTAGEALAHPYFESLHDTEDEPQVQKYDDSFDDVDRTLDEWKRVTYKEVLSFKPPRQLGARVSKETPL

[15] = target: Mitogen-activated protein kinase 14 (Homo sapiens) (UniProt Q16539); experiment: Inhibition of Stress activated protein kinase 2a; design: scale not given: the % may be the effect or the level left
Sequence of Mitogen-activated protein kinase 14 (Homo sapiens) (Q16539 whole entry): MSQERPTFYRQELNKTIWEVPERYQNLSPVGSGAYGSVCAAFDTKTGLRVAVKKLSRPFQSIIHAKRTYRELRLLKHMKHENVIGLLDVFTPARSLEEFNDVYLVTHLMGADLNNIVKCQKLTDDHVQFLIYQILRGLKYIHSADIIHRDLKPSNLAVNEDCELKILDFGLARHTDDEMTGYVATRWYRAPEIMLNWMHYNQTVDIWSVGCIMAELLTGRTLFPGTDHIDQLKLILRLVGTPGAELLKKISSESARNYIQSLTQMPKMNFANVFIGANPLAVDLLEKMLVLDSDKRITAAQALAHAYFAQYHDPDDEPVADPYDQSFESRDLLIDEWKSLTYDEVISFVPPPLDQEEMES

[16] = target: Mitogen-activated protein kinase 8 (Homo sapiens) (UniProt P45983); experiment: Inhibition of c-Jun N-terminal kinase 1-alpha 1; design: scale not given: the % may be the effect or the level left
Sequence of Mitogen-activated protein kinase 8 (Homo sapiens) (P45983 whole entry): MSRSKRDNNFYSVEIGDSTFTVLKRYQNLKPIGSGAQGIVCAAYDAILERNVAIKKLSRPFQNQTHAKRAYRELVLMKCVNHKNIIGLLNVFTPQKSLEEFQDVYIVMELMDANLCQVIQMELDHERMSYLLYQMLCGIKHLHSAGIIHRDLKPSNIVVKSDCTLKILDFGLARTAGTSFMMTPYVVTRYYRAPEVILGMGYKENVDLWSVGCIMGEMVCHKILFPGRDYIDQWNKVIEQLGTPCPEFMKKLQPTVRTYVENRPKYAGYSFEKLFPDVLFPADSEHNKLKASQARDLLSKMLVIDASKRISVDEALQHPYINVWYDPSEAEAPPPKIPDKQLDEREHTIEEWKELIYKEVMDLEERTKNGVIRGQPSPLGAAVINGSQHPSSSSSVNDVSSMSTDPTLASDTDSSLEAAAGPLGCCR

SMILES | Activity [1] [%] | Activity [2] [%] | Activity [3] [%] | Activity [4] [%] | IC50 [5] [nM] | Activity [6] [%] | Activity [7] [%] | Activity (Bos taurus) [%] | Activity [8] [%] | Activity [9] [%] | Activity [10] [%] | Activity [11] [%] | Activity [12] [%] | Activity [13] [%] | Activity [14] [%] | Activity [15] [%] | Activity [16] [%]
COCCCn1cc(C2=C(c3ccccc3O)C(=O)NC2=O)c2cccnc21 | 63 | 82 | 93 | 9 | 700 | 71 | 78 | 99 | 99 | 78 | 94 | 74 | 75 | 102 | 120 | 84 | 75
COc1ccccc1C1=C(c2cn(CCCNC(=O)OC(C)(C)C)c3ncccc23)C(=O)NC1=O | 60 | 91 | 103 | 2 | 170 | 101 | 81 | 112 | 108 | 20 | 93 | 92 | 49 | 106 | 122 | 109 | 81
O=C1NC(=O)C(c2cn(CCCO)c3ncccc23)=C1c1ncc(C(F)(F)F)cc1Cl | 76 | 82 | 56 | 25 | 5800 | 68 | 66 | 86 | 86 | 79 | 78 | 74 | 92 | 94 | 86 | 81 | 80
